Test results: paper PMC7562955 (Nature Communications, 2020)

Target: T1, mouse TLR7 (Mus musculus, UniProt P58681)
T1 construct: host or cells: HEK293 (293XL-mTLR7)
T1 sequence (P58681 27-1050): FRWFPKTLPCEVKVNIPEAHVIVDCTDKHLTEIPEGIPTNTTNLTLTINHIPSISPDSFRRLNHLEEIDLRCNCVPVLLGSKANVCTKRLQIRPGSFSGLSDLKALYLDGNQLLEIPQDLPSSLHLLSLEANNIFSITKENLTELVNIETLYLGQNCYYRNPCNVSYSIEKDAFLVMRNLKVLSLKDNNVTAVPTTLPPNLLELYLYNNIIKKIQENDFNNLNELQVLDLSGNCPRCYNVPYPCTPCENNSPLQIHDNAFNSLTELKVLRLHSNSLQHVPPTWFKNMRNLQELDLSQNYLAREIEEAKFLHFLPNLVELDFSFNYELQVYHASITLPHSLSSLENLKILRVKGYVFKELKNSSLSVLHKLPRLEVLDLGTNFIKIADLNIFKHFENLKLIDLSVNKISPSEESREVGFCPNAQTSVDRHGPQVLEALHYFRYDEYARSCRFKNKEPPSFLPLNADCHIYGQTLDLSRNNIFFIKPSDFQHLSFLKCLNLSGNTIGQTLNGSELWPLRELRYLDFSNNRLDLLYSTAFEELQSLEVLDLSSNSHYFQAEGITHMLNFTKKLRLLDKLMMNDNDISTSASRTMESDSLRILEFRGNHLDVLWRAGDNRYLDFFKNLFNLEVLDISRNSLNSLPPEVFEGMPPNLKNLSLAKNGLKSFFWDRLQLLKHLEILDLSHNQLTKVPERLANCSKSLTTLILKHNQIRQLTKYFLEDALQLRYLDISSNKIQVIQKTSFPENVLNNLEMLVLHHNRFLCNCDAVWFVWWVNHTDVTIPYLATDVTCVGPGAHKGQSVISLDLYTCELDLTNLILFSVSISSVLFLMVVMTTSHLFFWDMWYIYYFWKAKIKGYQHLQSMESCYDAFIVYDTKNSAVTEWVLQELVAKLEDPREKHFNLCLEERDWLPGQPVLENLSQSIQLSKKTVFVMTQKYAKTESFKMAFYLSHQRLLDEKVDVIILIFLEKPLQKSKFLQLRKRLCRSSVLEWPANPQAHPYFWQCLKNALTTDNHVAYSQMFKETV
Experiment: Mouse TLR7 reporter gene assay (NF-kB luciferase, HEK293)
Type: cell-based
Experimental: Compounds were dissolved in dimethyl sulfoxide. The day before transfection, mouse TLR7 genestably-expressing HE293 cell line (293XL-mTLR7 cell, InvivoGen, USA) and mouse TLR9 genestably-expressing HEK293 cell line (293-mTLR9 cell, InvivoGen) were seeded in collagen-coated 6-well plate (AGC techno glass) at 3 × 10^5 cells/well in DMEM (GIBCO) with 10% fetal bovine serum (GIBCO), and 10 μg ml^−1 Blastcidin S HCl (GIBCO) and incubated at 37 °C in 5% CO2. The plates were incubated over-night and then cotransfected with 1 μg (mouse TLR7) or 0.3 μg (mouse TLR9) of pNF-kB-Luciferase reporter in a 10:1 ratio with 4 μl of FuGene6 transfection reagent (Promega corporation, USA) following the manufacturer’s instructions. The plates were incubated 24 h. The cells re-seeded into 96-well plate (AGC techno glass) at 2 × 10^4 cells/well in DMEM (GIBCO) with 10% fetal bovine serum (GIBCO), and 10 μg ml^−1 Blastcidin S HCl (GIBCO) and then inhibition with various concentrations of compound. HCQ (mouse TLR7/9, Acros Organics, United Kingdom) was used as positive control. After 30 min, R848 (mouse TLR7/8 ligand) or CpG1826 (mouse TLR9 ligand, Hokkaido System Science Co., Ltd.) added to each well, wherein each final concentration were adjusted to 200 nM R848 (mouse TLR7) or 100 nM CpG1826 (mouse TLR9). The plates were then incubated an additional 6 h at 37 °C in 5% CO2, and then the luciferase activity was measured as activation of mouse TLR7 and 9. The luciferase activity was evaluated as follows: Bright-GloTM Luciferase Assay System (Promega) was added to the incubated sample (100 μl/well); after 2 min, the luminescence intensity of each sample was measured with a luminometer (Envision).

[1] = compound 0.0001 nM (as headed), R848 200 nM
[2] = compound 0.001 nM (as headed), R848 200 nM
[3] = compound 0.003 nM (as headed), R848 200 nM
[4] = compound 0.01 nM (as headed), R848 200 nM
[5] = compound 0.03 nM (as headed), R848 200 nM
[6] = compound 0.1 nM (as headed), R848 200 nM
[7] = compound 0.3 nM (as headed), R848 200 nM
[8] = compound 1 nM (as headed), R848 200 nM
[9] = compound 3 nM (as headed), R848 200 nM
[10] = compound 10 nM (as headed), R848 200 nM
[11] = compound 30 nM (as headed), R848 200 nM
[12] = compound 100 nM (as headed), R848 200 nM

CCN(CCO)CCCC(C)Nc1ccnc2cc(Cl)ccc12 (centres unmarked) [HCQ, hydroxychloroquine, reference compound] was tested, and the “mouse TLR7 activity, reporter signal” value [1] was 7166, the “mouse TLR7 activity, reporter signal” value [2] was 7642 and the “mouse TLR7 activity, reporter signal” value [3] was 8310. For the same compound, the “mouse TLR7 activity, reporter signal” value [4] was 7288, the “mouse TLR7 activity, reporter signal” value [5] was 6268 and the “mouse TLR7 activity, reporter signal” value [6] was 6670. The “mouse TLR7 activity, reporter signal” value [7] was 9264, the “mouse TLR7 activity, reporter signal” value [8] was 7190 and the “mouse TLR7 activity, reporter signal” value [9] was 9456. For the same compound, the “mouse TLR7 activity, reporter signal” value [10] was 3934, the “mouse TLR7 activity, reporter signal” value [11] was 558 and the “mouse TLR7 activity, reporter signal” value [12] was 1958.
With CCOc1nc(C)c2nc(-c3cncc(F)c3)n(Cc3ccc(CN4C[C@@H]5C[C@H]4CN5C)cc3)c2n1 [Cpd-7] the “selectivity mouse TLR7 vs TLR9” value was “TLR7-selective”, the IC50 (R848 200 nM) was 192 nM and the “mouse TLR7 activity, reporter signal” value [1] was 7166. The “mouse TLR7 activity, reporter signal” value [2] was 5248, the “mouse TLR7 activity, reporter signal” value [3] was 4474 and the “mouse TLR7 activity, reporter signal” value [4] was 4918. For the same compound, the “mouse TLR7 activity, reporter signal” value [5] was 5112, the “mouse TLR7 activity, reporter signal” value [6] was 4262 and the “mouse TLR7 activity, reporter signal” value [7] was 2860. For the same compound, the “mouse TLR7 activity, reporter signal” value [8] was 1240, the “mouse TLR7 activity, reporter signal” value [9] was 1308 and the “mouse TLR7 activity, reporter signal” value [10] was 550. For the same compound, the “mouse TLR7 activity, reporter signal” value [11] was 0 and the “mouse TLR7 activity, reporter signal” value [12] was 0.
